In ChEMBL document CHEMBL3603799, “3-Hydroxy-4-pyridinone derivatives designed for fluorescence studies to determine interaction with amyloid protein as well as cell permeability” (Bioorg Med Chem Lett, 2015):

Biological target: Amyloid-beta precursor protein (Homo sapiens) (UniProt P05067)
Assay: Binding affinity to amyloid beta (1 to 40) (unknown origin) assessed as increase in fluorescence after 3 hrs by UV-spectra analysis

Chain of Amyloid-beta precursor protein (Homo sapiens) (P05067 whole entry): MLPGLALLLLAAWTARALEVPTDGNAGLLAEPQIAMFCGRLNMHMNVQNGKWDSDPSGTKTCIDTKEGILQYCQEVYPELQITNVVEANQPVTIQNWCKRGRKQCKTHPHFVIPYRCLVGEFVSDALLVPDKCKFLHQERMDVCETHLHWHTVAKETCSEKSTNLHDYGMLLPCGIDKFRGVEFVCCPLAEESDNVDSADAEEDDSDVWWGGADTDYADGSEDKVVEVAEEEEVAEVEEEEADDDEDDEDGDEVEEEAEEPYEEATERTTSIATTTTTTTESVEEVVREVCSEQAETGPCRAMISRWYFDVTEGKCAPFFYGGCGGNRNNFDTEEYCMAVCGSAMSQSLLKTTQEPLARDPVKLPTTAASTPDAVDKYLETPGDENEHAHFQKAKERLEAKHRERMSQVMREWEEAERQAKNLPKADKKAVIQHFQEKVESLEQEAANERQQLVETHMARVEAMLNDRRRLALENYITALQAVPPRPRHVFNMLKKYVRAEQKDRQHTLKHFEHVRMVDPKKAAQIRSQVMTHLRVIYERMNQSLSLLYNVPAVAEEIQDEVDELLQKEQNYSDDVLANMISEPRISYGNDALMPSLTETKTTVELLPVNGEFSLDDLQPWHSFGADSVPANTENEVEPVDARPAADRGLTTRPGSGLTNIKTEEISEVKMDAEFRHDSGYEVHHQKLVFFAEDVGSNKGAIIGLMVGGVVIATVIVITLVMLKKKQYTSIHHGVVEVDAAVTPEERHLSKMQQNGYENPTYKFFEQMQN

| Activity [%] | Structure (SMILES) |
| --- | --- |
| 3 | Cc1c(O)c(=O)ccn1-c1ccc(-c2nc3ccccc3o2)cc1 |
| 50 | Cc1c(O)c(=O)ccn1-c1ccc(-c2nc3ccccc3s2)cc1 |
